Experimental data from ChEMBL document CHEMBL4651402, “Screening of ~5500 FDA-approved drugs and clinical candidates for anti-SARS-CoV-2 activity” (2021).

System: SARS-CoV-2
Assay: microbe, parasite or virus in culture
Details: Severe acute respiratory syndrome coronavirus 2, Vero C1008, 48 h

| Compound | IC50 [µM] | IC50 (read-out: pIC50 (converted)) [µM] |
| --- | --- | --- |
| CNCCc1ccc(O)c(O)c1 [DEOXIEPINEPHRINE] | > 20 | > 20 |
| OC[C@H]1NC[C@@H](O)[C@@H](O)[C@@H]1O [DEOXYMANNOJIRIMYCIN] | > 20 | > 20 |
| CC(=O)[C@@]1(O)CC[C@H]2[C@@H]3CCC4=CC(=O)C=C[C@]4(C)[C@H]3[C@@H](O)C[C@@]21C [DEPRODONE] | > 20 | > 20 |
| CNCCCN1c2ccccc2CCc2ccccc21 [DESIPRAMINE] | > 20 | > 20 |
| C[C@@H]1C[C@H]2[C@@H]3CCC4=CC(=O)C=C[C@]4(C)[C@@]3(F)[C@@H](O)C[C@]2(C)[C@H]1C(=O)CO [DESOXIMETASONE] | > 20 | > 20 |
| CC(=O)OCC(=O)[C@H]1CC[C@H]2[C@@H]3CCC4=CC(=O)CC[C@]4(C)[C@H]3CC[C@]12C [DESOXYCORTICOSTERONE ACETATE] | > 20 | > 20 |
| CC(C)(C)C(=O)OCC(=O)[C@H]1CC[C@H]2[C@@H]3CCC4=CC(=O)CC[C@]4(C)[C@H]3CC[C@]12C [DESOXYCORTICOSTERONE PIVALATE] | > 20 | > 20 |
| C[C@]12CC[C@H]3[C@@H](CCC4=CC(=O)CC[C@@]43C)[C@@H]1CC[C@@H]2C(=O)CO [DESOXYCORTICOSTERONE] | > 20 | > 20 |
| CN(C)CC(c1ccc(O)cc1)C1(O)CCCCC1 (stereo unspecified) [DESVENLAFAXINE] | > 20 | > 20 |
| Cc1cccc(Cc2c[nH]cn2)c1C [DETOMIDINE] | > 20 | > 20 |
| CN1C(=O)[C@@H](NC(=O)c2cc3ccccc3[nH]2)N=C(c2ccccc2)c2ccccc21 [DEVAZEPIDE] | > 20 | > 20 |
| C[C@@H]1C[C@H]2[C@@H]3CCC4=CC(=O)C=C[C@]4(C)[C@@]3(F)[C@@H](O)C[C@]2(C)[C@@]1(O)C(=O)CO [DEXAMETHASONE] | > 20 | > 20 |
| c1ccc([C@@H]2CN3CCSC3=N2)cc1 [DEXAMISOLE] | > 20 | > 20 |
| CN(C)CC[C@@H](c1ccc(Cl)cc1)c1ccccn1 [DEXCHLORPHENIRAMINE] | > 20 | > 20 |
| O=C1CC[C@@](c2ccccc2)(C2CCN(Cc3ccccc3)CC2)C(=O)N1 [DEXETIMIDE] | > 20 | > 20 |
| COC(=O)C1=C(C)NC(C)=C(C(=O)OCCCN2CCC(c3ccccc3)(c3ccccc3)CC2)[C@@H]1c1cccc([N+](=O)[O-])c1 [DEXNIGULDIPINE] | > 20 | > 20 |
| CC(C)(CO)[C@@H](O)C(=O)NCCCO [DEXPANTHENOL] | > 20 | > 20 |
| C[C@@H](CN1CC(=O)NC(=O)C1)N1CC(=O)NC(=O)C1 [DEXRAZOXANE] | > 20 | > 20 |
| CCN(CCCC(=O)C1CCCCC1)[C@@H](C)Cc1ccc(OC)cc1 [DEXSECOVERINE] | > 20 | > 20 |
| CCOC(=O)[C@]1(c2ccccc2)CCC=C[C@H]1N(C)C [DEXTILIDINE] | > 20 | > 20 |
| CC[C@H]1C(C)=NN=C(c2ccc(OC)c(OC)c2)c2cc(OC)c(OC)cc21 [DEXTOFISOPAM] | > 20 | > 20 |
| C[N+](C)(C)C[C@H](O)CC(=O)O [DEXTROCARNITINE] | > 20 | > 20 |
| COc1ccc2c(c1)[C@]13CCCC[C@@H]1[C@H](C2)N(C)CC3 [DEXTROMETHORPHAN] | > 20 | > 20 |
| OC[C@H]1OC(O)[C@H](O)[C@@H](O)[C@@H]1O (stereo partly specified) [DEXTROSE] | > 20 | > 20 |
| Nc1cc2[nH]cnc2c(=O)[nH]1 [DEZAGUANINE] | > 20 | > 20 |
| C[C@@]12CCCCC[C@@H](Cc3ccc(O)cc31)[C@@H]2N [DEZOCINE] | > 20 | > 20 |
| CC(=O)Oc1cccc2c1C(=O)c1c(OC(C)=O)cc(C(=O)O)cc1C2=O [DIACEREIN] | > 20 | > 20 |

| Compound | IC50 [µM] | IC50 (read-out: pIC50 (converted)) [µM] |
| --- | --- | --- |
| CC(=O)Nc1ccc(OC(C)=O)cc1 [DIACETAMATE] | > 20 | > 20 |
| CCN(CC)CCOc1ccc2nc(N(C)C)sc2c1 [DIAMTHAZOLE] | > 20 | > 20 |
| CC(=O)Nc1c(I)c(NC(C)=O)c(I)c(C(=O)O)c1I [DIATRIZOIC ACID] | > 20 | > 20 |
| COc1ccc(Cc2cnc(N)nc2N)cc1OC [DIAVERIDINE] | > 20 | > 20 |
| CN1C(=O)CN=C(c2ccccc2)c2cc(Cl)ccc21 [DIAZEPAM] | > 20 | > 20 |
| CCOC(=O)NC1=C(N2CC2)C(=O)C(NC(=O)OCC)=C(N2CC2)C1=O [DIAZIQUONE] | > 20 | > 20 |
| CC1=Nc2ccc(Cl)cc2S(=O)(=O)N1 [DIAZOXIDE] | > 20 | > 20 |
| CN(C)CCN1C(=O)c2ccccc2N(C)c2ccccc21 [DIBENZEPIN] | > 20 | > 20 |
| N[C@@H](Cc1cc(Br)c(O)c(Br)c1)C(=O)O [DIBROMOTYROSINE] | > 20 | > 20 |
| CC(=O)OCC(=O)[C@@]1(O)CC[C@H]2[C@@H]3CCC4=CC(=O)C=C[C@]4(C)[C@@]3(Cl)[C@@H](Cl)C[C@@]21C [DICHLORISONE ACETATE] | > 20 | > 20 |
| O=C(O)C(Cl)Cl [DICHLOROACETIC ACID] | > 20 | > 20 |
| OCc1ccc(Cl)cc1Cl [DICHLOROBENZYL ALCOHOL] | > 20 | > 20 |
| Oc1ccc(Cl)cc1Cc1cc(Cl)ccc1O [DICHLOROPHEN] | > 20 | > 20 |
| NS(=O)(=O)c1cc(Cl)c(Cl)c(S(N)(=O)=O)c1 [DICHLORPHENAMIDE] | > 20 | > 20 |
| COP(=O)(OC)OC=C(Cl)Cl [DICHLORVOS] | > 20 | > 20 |
| N#CC(c1ccc(Cl)cc1)c1c(Cl)cc(-n2ncc(=O)[nH]c2=O)cc1Cl (stereo unspecified) [DICLAZURIL] | > 20 | > 20 |
| O=C(O)Cc1ccccc1Nc1c(Cl)cccc1Cl [DICLOFENAC] | > 20 | > 20 |
| Cc1onc(-c2c(Cl)cccc2Cl)c1C(=O)N[C@@H]1C(=O)N2[C@@H]1SC(C)(C)[C@@H]2C(=O)O [DICLOXACILLIN] | > 20 | > 20 |
| COc1c2ccccc2nc2occc12 [DICTAMNINE] | > 20 | > 20 |
| O=c1oc2ccccc2c(O)c1Cc1c(O)c2ccccc2oc1=O [DICUMAROL] | > 20 | > 20 |
| CCN(CC)CCOC(=O)C1(C2CCCCC2)CCCCC1 [DICYCLOMINE] | > 20 | > 20 |
| C/C=C(/C(=C/C)c1ccc(O)cc1)c1ccc(O)cc1 [DIENESTROL] | > 20 | > 20 |
| CCOP(=O)(O)OCC [DIETHYL HYDROGEN PHOSPHATE] | > 20 | > 20 |
| CCN(CC)C(=O)N1CCN(C)CC1 [DIETHYLCARBAMAZINE] | > 20 | > 20 |
| CCN(CC)C(C)C(=O)c1ccccc1 (stereo unspecified) [DIETHYLPROPION] | > 20 | > 20 |
| CC/C(=C(/CC)c1ccc(O)cc1)c1ccc(O)cc1 [DIETHYLSTILBESTROL] | > 20 | > 20 |
